Test results from US9801888B2, “Pyrimidine compounds as mTOR and PI3K inhibitors” (DEVELOPMENT CENTER FOR BIOTECHNOLOGY, priority 2009, dated 2017).

How the values were obtained:
PI3K (p110β/p85α) = experiment: PI3K HTRF enzyme assay, p110β/p85α; format: biochemical; settings: compound at 500 nM; 100 μM ATP
Experimental: Recombinant PI3K (p110α/p85α) and PI3K (p110β/p85α) were from Millipore. […] Briefly, the compounds of interest dissolved in 100% DMSO were dispensed in all wells, following which the mixture of PIP2 and enzyme was added. PI3K (p110α/p85α) and PI3K (p110β/p85α) enzyme reactions were initiated in the presence of 10 μM and 100 μM ATP, respectively, and incubated for 30 min at room temperature. STOP solution prepared 2 hours prior to use was added to stop reactions, and mixed well. Detection solution prepared 2 hours prior to use was added, and incubated at room temperature for 17 hours in the dark. […] HTRF ration was calculated as follows: […]

recombinant mTOR = recombinant mTOR (Homo sapiens (Human), UniProt P42345); experiment: mTOR kinase assay (33P incorporation into 4EBP1); format: biochemical; settings: compound at 10 μM; 10 μM ATP; versus DMSO control
Sequence of recombinant mTOR (P42345 1360-2549): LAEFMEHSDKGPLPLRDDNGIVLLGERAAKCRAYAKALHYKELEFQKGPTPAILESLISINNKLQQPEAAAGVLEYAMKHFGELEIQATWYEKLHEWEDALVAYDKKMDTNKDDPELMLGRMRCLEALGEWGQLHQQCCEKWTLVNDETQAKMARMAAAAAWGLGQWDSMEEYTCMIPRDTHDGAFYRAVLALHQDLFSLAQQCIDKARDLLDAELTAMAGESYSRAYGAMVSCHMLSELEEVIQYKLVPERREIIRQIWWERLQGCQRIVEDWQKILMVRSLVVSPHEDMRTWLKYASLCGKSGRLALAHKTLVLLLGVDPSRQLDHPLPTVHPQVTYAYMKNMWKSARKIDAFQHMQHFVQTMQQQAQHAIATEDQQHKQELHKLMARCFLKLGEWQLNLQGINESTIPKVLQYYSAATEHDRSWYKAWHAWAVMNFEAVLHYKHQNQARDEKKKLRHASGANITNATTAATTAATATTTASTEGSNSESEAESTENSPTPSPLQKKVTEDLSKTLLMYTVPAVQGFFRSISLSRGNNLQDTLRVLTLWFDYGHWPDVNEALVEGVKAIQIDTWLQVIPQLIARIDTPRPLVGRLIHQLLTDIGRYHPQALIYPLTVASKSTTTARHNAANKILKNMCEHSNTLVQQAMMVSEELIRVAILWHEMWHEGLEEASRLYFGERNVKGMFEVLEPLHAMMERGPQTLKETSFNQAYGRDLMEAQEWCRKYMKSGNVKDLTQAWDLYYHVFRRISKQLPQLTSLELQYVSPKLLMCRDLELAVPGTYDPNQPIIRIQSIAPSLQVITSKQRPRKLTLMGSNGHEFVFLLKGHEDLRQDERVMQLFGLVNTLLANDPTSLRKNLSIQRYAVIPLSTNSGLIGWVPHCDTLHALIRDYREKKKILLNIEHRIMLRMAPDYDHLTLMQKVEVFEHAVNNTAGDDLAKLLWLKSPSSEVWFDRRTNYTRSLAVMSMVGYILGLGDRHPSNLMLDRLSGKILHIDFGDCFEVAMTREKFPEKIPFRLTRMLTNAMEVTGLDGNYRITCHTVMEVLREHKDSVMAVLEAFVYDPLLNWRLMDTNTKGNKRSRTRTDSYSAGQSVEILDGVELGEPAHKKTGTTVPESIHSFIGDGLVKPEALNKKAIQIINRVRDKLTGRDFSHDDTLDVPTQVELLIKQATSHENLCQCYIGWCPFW
Experimental: The activity of the compound against mTOR was examined by measuring the incorporation of ^33P from [γ-^33P]-ATP into 4EBP1. His-tagged, recombinant human 4EBP1 was expressed in E. coli, purified by nickel-nitrilotriacetic acid (Ni-NTA) resins, and stored at −80° C. Phosphorylation of 4EBP1 by mTOR was assayed in the presence or absence of the compound and performed in a final volume of 25 μl reaction buffer containing 300 ng 4EBP1, 50 ng recombinant mTOR (Invitrogen), 50 mM HEPES (pH 7.5), 1 mM EGTA, 0.01% Polysorbate 20, 10 mM MnCl2, 2.5 mM DTT, 10 μM ATP, and 0.5 μCi [γ-33P]-ATP (PerkinElmer) for 30 min at 30° C. The reactions were terminated by adding 3% phosphoric acid. The ^33P labeled 4EBP1 was transferred onto UniFilter-96 GF/B plate (PerkinElmer) and quantified by Top Count Microplate Scintillation Counter (PerkinElmer). For primary screening of kinase activity inhibition, each test compound was evaluated at […] in duplicate. […] The IC50 values of the compounds were determined after carrying out assays at eight serially diluted concentrations of each compound in duplicate. The results were analyzed using […] software (GraphPad Prism 5; GraphPad Software Inc.).
IC50 value is defined as the concentration of the test compound which achieves a half-maximal inhibition of the kinase activity.

Structure (SMILES)	% inhibition @ 500 nM p110β (PI3K (p110β/p85α)) [%]	% Inhibition @ 10 μM (recombinant mTOR) [%]
CCOc1cnc(-c2ccc(NC(=O)Nc3ccc(N4CCOCC4=O)cc3)cc2)nc1-c1ccncc1 [MTR-0398, 1-[4-(5-Ethoxy-4-pyridin-4-yl-pyrimidin-2-yl)-phenyl]-3-[4-(3-oxo-morpholin-4-yl)-phenyl]-urea]	21.80	
COc1cnc(-c2ccc(NC(=O)Nc3cccc(F)c3)cc2)nc1N1CCOCC1 [MTR-0164, 1-(3-Fluoro-phenyl)-3-[4-(5-methoxy-4-morpholin-4-yl-pyrimidin-2-yl)-phenyl]-urea]	42.10	
COc1c(-c2ccc(N)cc2)nc(-c2ccc(N)cc2)nc1N1CCOCC1 [MTR-0483]		88
CSc1c(Cl)nc(-c2ccc(N)nc2)nc1N1CCOCC1 [MTR-0133, 5-(4-Chloro-5-methylsulfanyl-6-morpholin-4-yl-pyrimidin-2-yl)-pyridin-2-ylamine]	4.50	
CSc1c(OCCN(C)C)nc(-c2cccc(O)c2)nc1N1CCOCC1 [MTR-0043, 3-[4-(2-Dimethylamino-ethoxy)-5-methylsulfanyl-6-morpholin-4-yl-pyrimidin-2-yl]-phenol]	44.80	
CSc1cnc(-c2ccc(NC(=O)Nc3ccc(F)cc3)cc2)nc1N1CCOCC1 [MTR-0178, 1-(4-Fluoro-phenyl)-3-[4-(5-methylsulfanyl-4-morpholin-4-yl-pyrimidin-2-yl)-phenyl]-urea]	8.20	
CSc1c(Cl)nc(-c2ccc(NC(=O)Nc3ccc(F)cc3)cc2)nc1N1CCOCC1 [MTR-0135, 1-[4-(4-Chloro-5-methylsulfanyl-6-morpholin-4-yl-pyrimidin-2-yl)-phenyl]-3-(4-fluoro-phenyl)-urea]	14.20	
CCOC(=O)c1nc(-c2ccc(NC(=O)Nc3cccc(F)c3)cc2)nc(N2CCOCC2)c1OCC [MTR-0147, 5-Ethoxy-2-{4-[3-(3-fluoro-phenyl)-ureido]-phenyl}-6-morpholin-4-yl-pyrimidine-4-carboxylic acid ethyl ester]	1.20	
CCOc1c(CN2CCN(S(C)(=O)=O)CC2)nc(-c2ccc(NC(=O)Nc3ccccc3)cc2)nc1N1CCOCC1 [MTR-0169, 1-{4-[5-Ethoxy-4-(4-methanesulfonyl-piperazin-1-ylmethyl)-6-morpholin-4-yl-pyrimidin-2-yl]-phenyl}-3-phenyl-urea]	3.20	
